Patent publication EP0516978A1, “Enantiomers of substituted (aminophenyl)-heteroarylethylamines, a method for their preparation, and pharmaceutical compositions containing these compounds” (HOECHST AKTIENGESELLSCHAFT, priority 1991, dated 1992)

What was measured:
Mongolischen Gerbil = experiment: Neuroprotection after forebrain ischaemia in the gerbil (5-minute bilateral carotid artery occlusion); assay type: in vivo; settings: treated vs. control group; for Verhaltensscore (% Änderung): 5-step neurological score over 45 min after ischaemia; for Zellnekrosen (% Änderung): 5-step histopathological score, hippocampal CA₁ region, 7 days later
From the text: Anhand der nachfolgend beschriebenen Versuchsdurchführungen (K. Rudolphi et. al, J. Cereb. Blood Flow Metab., 7:74. 1987) ergibt sich, daß die unten aufgeführten Verbindungen in der Lage sind, zerebrale Nervenzellen gegen eine schwere ischämische Schädigung zu schützen.
Bei 20 männlichen Mongolischen Gerbils werden unter Halothan-Narkose durch beidseitigen Verschluß der A. Carotis mittels Aneurysmaclips eine 5-minütige Ischämie des Vorderhirns mit anschließender Rezirkulation erzeugt. Die Tiere werden 45 Minuten lang nach der Ischämie beobachtet und das Ausmaß der neurologischen Symptome mittels eines 5-stufigen Verhaltensscores bestimmt. 7 Tage später werden die Tiere unter Halothan-Narkose dekapitiert, die Gehirne in Carnoy-Lösung immersionsfixiert und das Ausmaß des Neuronenschadens in der CA₁-Region des Hippocampus mit Hilfe eines 5-stufigen histopathologischen Scores "blind" bestimmt. Die Prüfsubstanzen werden je einer Gruppe von 10 Gerbils intraperitoneal oder per os 15 Minuten vor der Ischämie verabreicht. Pro Testsubstanz wird eine ischämische Kontrollgruppe von ebenfalls 10 Tieren mit dem jeweiligen Lösungsmittel behandelt. Die Ergebnisse sind in Tabelle 6 als % Änderung des mittleren neurologsichen Verhaltensscores bzw. histopathologischen Scores (Summe der individuellen Scores/Anzahl der Tiere) der behandelten vs. Kontrollgruppe zusammengefaßt. Tabelle 1
Je höher der Verhaltensscore (-% Änderungen), desto besser ist die Erholung der Tiere nach Ischämie.

NMRI-Mäusen = experiment: CNS tolerability in the healthy animal (mouse), behavioural observation; assay type: in vivo, Maus; settings: for Symptome: phenomena observed 3 hours after application; for Dosis, ab der eine ZNS erregende Aktivität, die als unverträglich gilt, auftritt: mouse, i.p., dose from which the behaviour-altering CNS excitation is seen
Description: Adulten männlichen NMRI-Mäusen werden die zu untersuchenden Substanzen in Dosen von 0,1-100 mg/kg i.p. in einem Volumen von 10 ml/kg verabreicht. Pro Versuchsdosis werden drei Tiere eingesetzt, wobei eine Gruppe als Placebo nur mit dem Lösungsmittel behandelt (Kontrolle) mitgeführt wird.
Die Placebogruppe dient dabei zur zeitgleichen Verhaltensfeststellung, parallel zur Versuchsgruppe. Sofort nach der Applikation werden die Tiere in Dreiergruppen in Beobachtungskäfige gesetzt und drei Stunden lang am ersten Tag beobachtet. Anschließend werden die Tiere gefüttert, getränkt und weitere sechs Tage, jeweils nach 24 Stunden, für eine halbe Stunde beobachtet. Dabei ergaben sich folgende Befunde: Tabelle 2

[1] = 30 mg/kg ip. 15 min before 5-min forebrain ischaemia
[2] = 30 mg/kg ip. 15 min before ischaemia

Structure (SMILES)	Verhaltensscore (% Änderung) (Mongolischen Gerbil; [1])	Zellnekrosen (% Änderung) (Mongolischen Gerbil; [2])	Symptome (NMRI-Mäusen; dose 0,1-3 mg/kg i.p.)	Symptome (NMRI-Mäusen; dose 1,0-3,0 mg/kg i.p.)	Symptome (NMRI-Mäusen; dose 10-100 mg/kg i.p.)	Dosis, ab der eine ZNS erregende Aktivität, die als unverträglich gilt, auftritt (NMRI-Mäusen) [mg/kg i. p.]	Symptome (NMRI-Mäusen; dose 0,1-0,3 mg/kg i.p.)	Dosis, ab der eine ZNS erregende Aktivität, die als unverträglich gilt, auftritt (NMRI-Mäusen; listed as (+)-Form) [mg/kg i. p.]	Verhaltensscore (% Änderung) (Mongolischen Gerbil; 60 mg/kg ip. 15 min before 5-min forebrain ischaemia)	Zellnekrosen (% Änderung) (Mongolischen Gerbil; 60 mg/kg ip. 15 min before ischaemia)	Symptome (NMRI-Mäusen; dose 0,01-0,3 mg/kg i.p.)	Dosis, ab der eine ZNS erregende Aktivität, die als unverträglich gilt, auftritt (NMRI-Mäusen; listed as (-)-Form) [mg/kg i. p.]
CNC(Cc1ccccc1N)c1sccc1C (racemic) [Razemisch II, 2-Amino-N-methyl-α-(3-methyl-2-thienyl)benzylethanamin]	-15	-75	vermehrter Putztrieb	Unruhe, Erregung, vermehrter Putztrieb	Taumeln, vermehrter Putztrieb, Unruhe, Erregung	≥ 10						
CNC(Cc1ccccc1N)c1sccc1C (single isomer, unassigned; (+)) [(+)II, 2-Amino-N-methyl-α-(3-methyl-2-thienyl)benzylethanamin]	-51	-90		kurzandauernde Erregung	vermehrter Putztrieb, Unruhe, Erregung, Taumeln		o. B.	≥ 10				
CNC(Cc1ccccc1N)c1sccc1C (single isomer, unassigned; (-)) [(-)II, 2-Amino-N-methyl-α-(3-methyl-2-thienyl)benzylethanamin]	-32			o. B.	Unruhe, vermehrter Putztrieb				-75	-23	o. B.	≥ 100
